Assay results: patent publication US8232288B2, “Substituted benzimidazoles, benzothiazoles and benzoxazoles” (Gruenenthal GmbH, priority 2009, dated 2012)

Experiments:
[1] = biological target: T1, B1R receptor of the rat (rB1R) (Rattus norvegicus, UniProt P97583); assay: Functional investigation on the bradykinin receptor 1 (B1R), FLIPR Ca2+ assay, rB1R cells; type: cell-based
T1 construct: expressed in transfected cells; host or cells: CHO K1 cells
T1 sequence (P97583 1-337): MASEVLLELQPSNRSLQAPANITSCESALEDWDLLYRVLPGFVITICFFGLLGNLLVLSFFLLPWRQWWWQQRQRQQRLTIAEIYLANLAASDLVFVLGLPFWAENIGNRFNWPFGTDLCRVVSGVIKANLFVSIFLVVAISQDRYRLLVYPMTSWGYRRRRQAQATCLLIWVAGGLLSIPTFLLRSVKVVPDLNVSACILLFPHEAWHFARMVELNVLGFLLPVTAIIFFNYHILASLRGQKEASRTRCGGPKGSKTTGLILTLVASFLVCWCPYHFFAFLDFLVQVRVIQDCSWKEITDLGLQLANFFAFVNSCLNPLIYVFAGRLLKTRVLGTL
Method: (§1) The agonistic or antagonistic action of substances can be quantified on the bradykinin receptor 1 (B1R) of the human and rat species with ectopically expressing cell lines (CHO K1 cells) and with the aid of a Ca^2+-sensitive dyestuff (Fluo-4) in a fluorescent imaging plate reader (FLIPR). The figure in % activation is based on the Ca^2+ signal after addition of Lys-Des-Arg^9-bradykinin (0.5 nM) or Des-Arg^9-bradykinin (100 nM). Antagonists lead to a suppression of the Ca^2+ inflow after addition of the agonist. % inhibition compared with the maximum achievable inhibition is stated.
(§2) The agonistic or antagonistic action of substances can be determined on the bradykinin receptor 1 (B1R) of the human and rat species with the following assay. In accordance with this assay, the Ca^2+ inflow through the channel is quantified with the aid of a Ca^2+-sensitive dyestuff (type Fluo-4, Molecular Probes Europe BV, Leiden Holland) in a fluorescent imaging plate reader (FLIPR, Molecular Devices, Sunnyvale, USA).
(§3) Chinese hamster ovary cells (CHO K1 cells) transfected stably with the human B1R gene (hB1R cells) or the B1R gene of the rat (rB1R cells) are used. For functional studies, these cells are plated out on black 96-well plates with a clear base (BD Biosciences, Heidelberg, Germany or Greiner, Frickenhausen, Germany) in a density of 20,000-35,000 cells/well. The cells are left overnight at 37° C. and 5% CO2 in culture medium (hB1R cells: Nutrient Mixture Ham's F12, Gibco Invitrogen GmbH, Karlsruhe, Germany or DMEM, Sigma-Aldrich, Taufkirchen, Germany; rB1R cells: D-MEM/F12, Gibco Invitrogen GmbH, Karlsruhe, Germany) with 10 vol. % FBS (foetal bovine serum, Gibco Invitrogen GmbH, Karlsruhe, Germany or PAN Biotech GmbH, Aidenbach, Germany). On the following day, the cells are loaded for 60 min at 37° C. with 2.13 μM Fluo-4 (Molecular Probes Europe BV, Leiden Holland) in HBSS buffer (Hank's buffered saline solution, Gibco Invitrogen GmbH, Karlsruhe, Germany) with 2.5 mM probenecid (Sigma-Aldrich, Taufkirchen, Germany) and 10 mM HEPES (Sigma-Aldrich, Taufkirchen, Germany). The plates are then washed 2× with HBSS buffer, and HBSS buffer which additionally contains 0.1% BSA (bovine serum albumin; Sigma-Aldrich, Taufkirchen, Germany), 5.6 mM glucose and 0.05% gelatine (Merck KGaA, Darmstadt, Germany) is added. After a further incubation of 20 minutes at room temperature, the plates are inserted into the FLIPR for the Ca^2+ measurement.
(§4) Alternatively, the plates are washed with buffer A (15 mM HEPES, 80 mM NaCl, 5 mM KCl, 1.2 mM CaCl2, 0.7 mM MgSO4, 2 g/l glucose, 2.5 mM probenecid), buffer A is added and the plates are loaded with 2.5 μM Fluo-4 and 0.025% Pluronic F127 (Sigma-Aldrich, Taufkirchen, Germany). Thereafter, the cells are washed 2× with buffer A and incubated for 30 minutes at room temperature with buffer A, which additionally contains 0.05% BSA and 0.05% gelatine, and thereafter inserted into the FLIPR for the Ca^2+ measurement.
(§5) The Ca^2+-dependent fluorescence is measured here before and after addition of substances (λex=488 nm, λem=540 nm). Quantification is by measurement of the highest fluorescence intensity (FC, fluorescence counts) over time.
(§6) The FLIPR protocol consists of 2 additions of substance. Test substances (10 μM) are first pipetted on to the cells and the Ca^2+ inflow is compared with the control (hB1R: Lys-Des-Arg^9-bradykinin>=50 nM; rB1R: Des-Arg^9-bradykinin 10 μM). This gives the result in % activation based on the Ca^2+ signal after addition of Lys-Des-Arg^9-bradykinin (>=50 nM) or Des-Arg^9-bradykinin (10 μM). After incubation for 10-20 minutes, Lys-Des-Arg^9-bradykinin (hB1R) or Des-Arg^9-bradykinin (rB1R) in the concentration of the EC80 is applied and the inflow of Ca^2+ is likewise determined. Antagonists lead to a suppression of the Ca^2+ inflow. % inhibition compared with the maximum achievable inhibition is calculated.
(§7) In order to determine the IC50 value, the substances are added in various concentrations. […]

[2] = biological target: T2, human B1R receptor (hB1R) (Homo sapiens, UniProt P46663); assay: Functional investigation on the bradykinin receptor 1 (B1R), FLIPR Ca2+ assay, hB1R cells; type: cell-based
T2 construct: expressed in transfected cells; host or cells: CHO K1 cells
T2 sequence (P46663 1-353): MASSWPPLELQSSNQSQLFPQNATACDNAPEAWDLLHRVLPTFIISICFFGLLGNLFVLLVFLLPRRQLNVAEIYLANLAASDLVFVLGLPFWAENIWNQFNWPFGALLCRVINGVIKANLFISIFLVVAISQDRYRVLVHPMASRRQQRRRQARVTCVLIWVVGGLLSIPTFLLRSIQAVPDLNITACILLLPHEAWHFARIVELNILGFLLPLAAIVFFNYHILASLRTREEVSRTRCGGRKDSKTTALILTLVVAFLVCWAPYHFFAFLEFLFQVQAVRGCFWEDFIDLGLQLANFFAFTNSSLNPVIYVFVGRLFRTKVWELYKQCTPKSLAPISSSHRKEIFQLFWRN
Method: as §1, §2, §3, §4, §5, §6, §7

| SMILES | inhibition at 10 µM [1] [%] | inhibition at 10 µM [2] [%] |
| --- | --- | --- |
| Cc1cc(S(=O)(=O)N(C)Cc2nc3cccc(C(=O)N4CCC5(CC4)CCN(c4ccncc4)CC5)c3[nH]2)c(C)cc1Cl [I_CC-01, 4-chloro-N,2,5-trimethyl-N-[[7-(3-pyridin-4-yl-3,9-diazaspiro[5.5]undecane-9-carbonyl)-1H-benzoimidazol-2-yl]-methyl]-benzenesulfonic acid amide] | 92 | 96 |
| CN(Cc1nc2cccc(C(=O)N3CCC4(CC3)C(=O)NCC4c3ccncc3)c2[nH]1)C(=O)c1ccccc1Cl (stereo not drawn) [I_CC-02, 2-chloro-N-methyl-N-[[7-(4-oxo-1-pyridin-4-yl-3,8-diazaspiro[4.5]decane-8-carbonyl)-1H-benzoimidazol-2-yl]-methyl]-benzamide] | 46 | 10 |
| COc1cc(C)c(S(=O)(=O)N(C)Cc2nc3cccc(C(=O)N4CCC5(CC4)CCN(c4ccncc4)CC5)c3[nH]2)c(C)c1 [I_CC-03, 4-methoxy-N,2,6-trimethyl-N-[[7-(3-pyridin-4-yl-3,9-diazaspiro[5.5]undecane-9-carbonyl)-1H-benzoimidazol-2-yl]-methyl]-benzenesulfonic acid amide] | 100 | 100 |
| CN(Cc1nc2cccc(C(=O)N3CCC4(CC3)CCN(c3ccncc3)CC4)c2[nH]1)C(=O)c1ccccc1Cl [I_CC-04, 2-chloro-N-methyl-N-[[7-(3-pyridin-4-yl-3,9-diazaspiro[5.5]undecane-9-carbonyl)-1H-benzoimidazol-2-yl]-methyl]-benzamide] | 102 | 65 |
| CN(Cc1nc2cccc(C(=O)N3CCC4(CC3)CCN(c3ccncc3)CC4)c2[nH]1)C(=O)c1sccc1Cl [I_CC-05, 3-chloro-N-methyl-N-[[7-(3-pyridin-4-yl-3,9-diazaspiro[5.5]undecane-9-carbonyl)-1H-benzoimidazol-2-yl]-methyl]-thiophene-2-carboxylic acid amide] | 93 | 30 |
| COc1cc(C)c(S(=O)(=O)N(C)Cc2nc3cccc(C(=O)N4CCC5(CC4)CCN(c4ccncc4)C5)c3[nH]2)c(C)c1 [I_CC-06, 4-methoxy-N,2,6-trimethyl-N-[[7-(3-pyridin-4-yl-3,8-diazaspiro[4.5]decane-8-carbonyl)-1H-benzoimidazol-2-yl]-methyl]-benzenesulfonic acid amide] | 102 | 100 |
| Cc1cccc(Cl)c1S(=O)(=O)N(C)Cc1nc2cccc(C(=O)N3CCC4(CC3)CCN(c3ccncc3)C4)c2[nH]1 [I_CC-07, 2-chloro-N,6-dimethyl-N-[[7-(3-pyridin-4-yl-3,8-diazaspiro[4.5]decane-8-carbonyl)-1H-benzoimidazol-2-yl]-methyl]-benzenesulfonic acid amide] | 97 | 100 |
| CN(Cc1nc2cccc(C(=O)N3CCC4(CC3)CCN(c3ccncc3)C4)c2[nH]1)C(=O)c1ccccc1Cl [I_CC-08, 2-chloro-N-methyl-N-[[7-(3-pyridin-4-yl-3,8-diazaspiro[4.5]decane-8-carbonyl)-1H-benzoimidazol-2-yl]-methyl]-benzamide] | 64 | 26 |
| CN(Cc1nc2cccc(C(=O)N3CCC4(CC3)CCN(c3ccncc3)C4)c2[nH]1)C(=O)c1sccc1Cl [I_CC-09, 3-chloro-N-methyl-N-[[7-(3-pyridin-4-yl-3,8-diazaspiro[4.5]decane-8-carbonyl)-1H-benzoimidazol-2-yl]-methyl]-thiophene-2-carboxylic acid amide] | 58 | 15 |
| Cc1cc(S(=O)(=O)N(C)Cc2nc3cccc(C(=O)N4CCC5(CC4)CCN(c4ccncc4)C5)c3[nH]2)c(C)cc1Cl [I_CC-10, 4-chloro-N,2,5-trimethyl-N-[[7-(3-pyridin-4-yl-3,8-diazaspiro[4.5]decane-8-carbonyl)-1H-benzoimidazol-2-yl]-methyl]-benzenesulfonic acid amide] | 88 | 94 |
| Cc1cccc(Cl)c1S(=O)(=O)N(C)Cc1nc2cccc(C(=O)N3CCC4(CC3)CCN(c3ccncc3)CC4)c2[nH]1 [I_CC-11, 2-chloro-N,6-dimethyl-N-[[7-(3-pyridin-4-yl-3,9-diazaspiro[5.5]undecane-9-carbonyl)-1H-benzoimidazol-2-yl]-methyl]-benzenesulfonic acid amide] | 91 | 98 |
| O=C1c2c(Cl)cccc2CN1Cc1nc2cccc(C(=O)N3CCC4(CC3)CCN(c3ccncc3)CC4)c2[nH]1 [I_CC-12, 7-chloro-2-[[7-(3-pyridin-4-yl-3,9-diazaspiro[5.5]undecane-9-carbonyl)-1H-benzoimidazol-2-yl]-methyl]-2,3-dihydro-isoindol-1-one] | 101 | 100 |
| O=C1c2c(Cl)cccc2CN1Cc1nc2cccc(C(=O)N3CCC4(CC3)CCN(c3ccncc3)C4)c2[nH]1 [I_CC-13, 7-chloro-2-[[7-(3-pyridin-4-yl-3,8-diazaspiro[4.5]decane-8-carbonyl)-1H-benzoimidazol-2-yl]-methyl]-2,3-dihydro-isoindol-1-one] | 49 | 71 |
| COc1cc(C)c(S(=O)(=O)N(C)c2nc3cccc(C(=O)N4CCC5(CC4)CCN(c4ccncc4)CC5)c3n2C)c(C)c1 [I_CC-14, 4-methoxy-N,2,6-trimethyl-N-[1-methyl-7-(3-pyridin-4-yl-3,9-diazaspiro[5.5]undecane-9-carbonyl)-1H-benzoimidazol-2-yl]-benzenesulfonic acid amide] | 90 | 96 |
| COc1cc(C)c(S(=O)(=O)N(C)c2nc3cccc(C(=O)N4CCC5(CC4)CCN(c4ccncc4)C5)c3n2C)c(C)c1 [I_CC-15, 4-methoxy-N,2,6-trimethyl-N-[1-methyl-7-(3-pyridin-4-yl-3,8-diazaspiro[4.5]decane-8-carbonyl)-1H-benzoimidazol-2-yl]-benzenesulfonic acid amide] | 99 | 97 |
